# ChEMBL document CHEMBL3639166, “Heteroaryloxyheterocyclyl compounds as PDE10 inhibitors” (2013)
# pIC50: −log10 of the molar value.
# Biological target: T1, cAMP and cAMP-inhibited cGMP 3',5'-cyclic phosphodiesterase 10A (Rattus norvegicus, UniProt Q9QYJ6)
# T1 sequence (Q9QYJ6 whole entry): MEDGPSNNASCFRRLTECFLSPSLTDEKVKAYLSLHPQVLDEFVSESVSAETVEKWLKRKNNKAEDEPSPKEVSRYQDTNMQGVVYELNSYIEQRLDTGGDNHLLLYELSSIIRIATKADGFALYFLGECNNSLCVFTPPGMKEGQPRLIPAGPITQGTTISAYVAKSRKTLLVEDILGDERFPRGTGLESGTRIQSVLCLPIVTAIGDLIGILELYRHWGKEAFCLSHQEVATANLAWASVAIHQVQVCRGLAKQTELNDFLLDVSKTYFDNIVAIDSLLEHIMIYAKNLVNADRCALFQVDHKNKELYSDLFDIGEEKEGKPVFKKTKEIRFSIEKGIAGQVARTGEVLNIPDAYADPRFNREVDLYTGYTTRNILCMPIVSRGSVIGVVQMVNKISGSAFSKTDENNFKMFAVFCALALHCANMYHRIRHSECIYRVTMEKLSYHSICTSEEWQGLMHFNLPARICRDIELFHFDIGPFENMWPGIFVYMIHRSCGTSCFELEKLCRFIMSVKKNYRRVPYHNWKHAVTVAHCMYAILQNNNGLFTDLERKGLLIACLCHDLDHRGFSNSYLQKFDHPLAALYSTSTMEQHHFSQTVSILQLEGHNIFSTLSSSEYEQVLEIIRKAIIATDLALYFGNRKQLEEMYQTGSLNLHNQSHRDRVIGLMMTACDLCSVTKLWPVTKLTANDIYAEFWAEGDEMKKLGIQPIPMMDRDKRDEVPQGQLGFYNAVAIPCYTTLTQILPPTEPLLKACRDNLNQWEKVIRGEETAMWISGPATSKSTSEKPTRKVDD
# Test: Enzyme Inhibition Assay: Enzyme activity: An IMAP TR-FRET assay was used to analyze the enzyme activity (Molecular Devices Corp., Sunnyvale, Calif).
row,pIC50,SMILES
1,5.74,c1cnc(OC2CCN(c3nccc4ccccc34)CC2)c(C2CCOCC2)c1
2,5.87,COC(=O)C1CCN(c2ncc(Br)c(OC3CN(c4ccc5ccccc5n4)C3)n2)CC1
3,6.70,O[C@H]1CCN(c2nccnc2OC2CCN(c3ccc4ccccc4n3)CC2)C1
4,6.63,CC(=O)N1CCC(c2nccnc2OC2CCN(c3cccc(Cl)n3)CC2)CC1
5,5.75,CC(=O)N1CCC(c2cccnc2OC2CCN(c3cc(C)ccn3)CC2)CC1
6,5.08,CC(=O)N1CCCC(c2cccnc2OC2CN(C(=O)c3ccc(C)nc3)C2)C1 (stereo not given)
7,6.42,CC(=O)c1ccc(N2CCC(Oc3ncccc3C3CCOCC3)CC2)nc1
8,5.55,c1ccc2c(N3CCC(Oc4nccnc4C4CCOCC4)CC3)nccc2c1
9,7.82,N#CC1CCN(c2cc(F)cnc2OC2CN(c3ccc4ccccc4n3)C2)CC1
10,6.63,c1ccc2cc(N3CCC(Oc4nccnc4C4CCOCC4)CC3)ncc2c1
11,6.23,CC(=O)N1CC=C(c2nccnc2OC2CN(C(=O)OCc3ccccc3)C2)CC1
12,5.91,Cc1cc(-c2cccnc2OC2CCN(C(=O)c3ccc4ccccc4n3)CC2)ccn1
13,6.15,O=C(c1nc2ccccc2[nH]1)N1CC[C@H](Oc2ncccc2C2=CCOCC2)C1
14,7.82,CN(C)C(=O)c1ccc(-c2nccnc2OC2CN(c3ccc4ccccc4n3)C2)cc1
15,6.46,CC(=O)N1CC=C(c2cccnc2OC2CN(c3nc4ccccc4s3)C2)CC1
16,5.53,c1cnc(O[C@H]2CCN(c3cc4ccccc4cn3)C2)c(C2CCOCC2)c1
17,8.37,FC1(F)CCN(c2nccnc2OC2CN(c3ccc4ccccc4n3)C2)CC1
18,6.90,Cc1cc(N2CCC(Oc3nccnc3C3CCOCC3)CC2)nc2ccccc12
19,8.18,COc1cccc(-c2nc3ccccc3nc2OC2CN(c3ccc4ccccc4n3)C2)c1

row,pIC50,SMILES
1,5.66,FC(F)(F)c1ccc(N2CCC(Oc3ncccc3C3CCOCC3)CC2)nc1
2,5.36,c1ccc2c(N3CC(Oc4nccnc4C4CCOCC4)C3)nccc2c1
3,6.93,COc1ncccc1-c1nccnc1OC1CCN(c2ccc3ccccc3n2)CC1
4,6.93,Cc1ccnc(C(=O)N2CCC(Oc3ncccc3C3CCOCC3)CC2)c1
5,7.12,CC(O)C1CCN(c2ccnnc2OC2CN(c3ccc4ccccc4n3)C2)CC1 (stereo not given)
6,6.76,CC(C)Oc1cc(F)cc(-c2nccnc2OC2CN(c3ccc4ccccc4n3)C2)c1
7,6.82,OC[C@H]1CCCN1c1nccnc1OC1CN(c2ccc3ccccc3n2)C1
8,5.97,O=C(c1ccc2ccccc2n1)N1CCC(Oc2nccnc2N2CCOCC2)CC1
9,6.55,COCC#Cc1nccnc1OC1CN(c2ccc3ccccc3n2)C1
10,7.36,c1ccc2nc(N3CC(Oc4nccnc4N4CCC5(CC4)COC5)C3)ccc2c1
11,6.68,CC(=O)N1CC=C(c2nccnc2OC2CN(C(=O)c3ccc[nH]3)C2)CC1
12,6.48,c1ccc2nc(N3CC(Oc4nccnc4N4CCCCCC4)C3)ccc2c1
13,7.29,O=C(OCc1ccccc1)N1CCC(c2nc3ccccc3nc2OC2CN(c3ccc4ccccc4n3)C2)CC1
14,7.64,CN(C)C(=O)c1cccc(-c2nccnc2OC2CN(c3ccc4ccccc4n3)C2)c1
15,6.64,c1ccc2[nH]c(N3CCC(Oc4nccnc4C4CCOCC4)CC3)nc2c1
16,6.00,CC(=O)N1CCC(c2nccnc2OC2CCN(c3cc(C)ccn3)CC2)CC1
17,7.39,CC(=O)N1CCCC(c2cccnc2OC2CN(C(=O)c3ccccn3)C2)C1 (stereo not given)
18,6.60,c1ccc2nc(N3CCC(Oc4nccnc4N4CCOCC4)CC3)ccc2c1
19,6.16,CC(=O)N1CCC(c2nccnc2OC2CN(c3nc4ccccc4[nH]3)C2)CC1

# Continued, compound first:
row,SMILES,pIC50
1,c1ccc2cc(N3CC(Oc4nccnc4C4CCOCC4)C3)ncc2c1,5.30
2,CC1CCN(c2nccnc2OC2CN(c3ccc4ccccc4n3)C2)CC1,6.91
3,Cc1cccc(-c2nccnc2OC2CN(c3ccc4ccccc4n3)C2)c1,7.24
4,Nc1ccc(N2CCC(Oc3ncccc3C3CCOCC3)CC2)nc1,5.77
5,CC(O)C1CCN(c2ncc(Br)c(OC3CN(c4ccc5ccccc5n4)C3)n2)CC1 (stereo not given),6.62
6,O=C(c1nc2ccccc2[nH]1)N1CCC(Oc2ncccc2C2CCOCC2)CC1,6.94
7,CC(C)(C)OC(=O)N1C=C(c2nccnc2OC2CN(C(=O)c3nc4ccccc4[nH]3)C2)CCC1,7.44
8,c1ccc2c(N3CC[C@H](Oc4nccnc4C4CCOCC4)C3)nccc2c1,6.09
9,CC(=O)N1CCC=C(c2nccnc2OC2CN(C(=O)c3nc4ccccc4[nH]3)C2)C1,6.92
10,CC(=O)N1CCC(c2nccnc2OC2CCN(c3ncccc3C)CC2)CC1,5.52
11,c1cnc(O[C@H]2CCN(c3nccc4ccccc34)C2)c(C2CCOCC2)c1,6.14
12,Fc1cnc(OC2CN(c3ccc4ccccc4n3)C2)c(N2CCC(F)(F)CC2)c1,6.84
13,O=C(c1nc2ccccc2[nH]1)N1CC[C@@H](Oc2nccnc2C2CCOCC2)C1,5.56
14,OCc1cccc(-c2nccnc2OC2CN(c3ccc4ccccc4n3)C2)c1,7.63
15,O=C(c1ccncn1)N1CC(Oc2ncccc2C2=CCOCC2)C1,6.00
16,Cc1cc(-c2nccnc2OC2CCN(C(=O)c3nccc4ccccc34)CC2)ccn1,5.44
17,OCc1ccc(-c2nccc(OC3CN(c4ccc5ccccc5n4)C3)n2)cc1,8.07
18,COCC(=O)N1CCC(c2nccnc2OC2CN(c3ccc4ccccc4n3)C2)CC1,6.78
19,OCC1CCN(c2ncc(N3CCCCC3)c(OC3CN(c4ccc5ccccc5n4)C3)n2)CC1,7.74

row,SMILES,pIC50
1,COC1CCN(c2nccnc2OC2CCN(c3ccc4ccccc4n3)CC2)CC1,7.22
2,Brc1cccnc1OC1CN(c2cccnn2)C1,7.60
3,COc1cccc(-c2nccnc2OC2CN(c3ncc4ccccc4n3)C2)c1,6.83
4,OCC1CCCN(c2ncc(Br)c(OC3CN(c4ccc5ccccc5n4)C3)n2)C1 (stereo not given),7.22
5,c1ccc2nc(N3CCC(Oc4nccnc4C4CCOCC4)CC3)ccc2c1,7.16
6,O=Cc1ccc(N2CCC(Oc3ncccc3C3CCOCC3)CC2)nc1,5.83
7,c1ccc2nc(N3CC(Oc4nccnc4-c4ccncc4)C3)ccc2c1,7.61
8,CC(C)(O)C1CCN(c2nccnc2OC2CN(c3ccc4ccccc4n3)C2)CC1,7.08
9,OC1CCN(c2ncc(Br)c(OC3CN(c4ccc5ccccc5n4)C3)n2)CC1,7.13
10,OCC1CCN(c2nccnc2OC2CN(c3cnc4ccccc4n3)C2)CC1,7.42
11,Fc1ccc(-c2nccnc2OC2CN(c3ccc4ccccc4n3)C2)cn1,7.34
12,CN1CCN(c2nccnc2OC2CN(c3ccc4ccccc4n3)C2)CC1,6.17
13,c1cnc(OC2CCN(c3cc4ccccc4cn3)CC2)c(C2CCOCC2)c1,6.45
14,Cc1ccc2ccc(N3CCC(Oc4nccnc4C4CCOCC4)CC3)nc2c1,6.29
15,CC(=O)N1CCC(c2cc(C)cnc2OC2CN(c3ccc4ccccc4n3)C2)CC1,7.17
16,O=C(c1nccc2ccccc12)N1CCC(Oc2nccnc2N2CCOCC2)CC1,5.27
17,COc1ccccc1-c1nccnc1OC1CN(c2ccc3ccccc3n2)C1,6.82
18,Cc1cc(-c2nccnc2OC2CCN(C(=O)c3ccc4ccccc4n3)CC2)ccn1,5.58
19,COc1ncc(-c2nccnc2OC2CN(c3ccc4ccccc4n3)C2)cn1,7.37

row,SMILES,pIC50
1,Cc1cc(N2CCC(Oc3ncccc3C3CCOCC3)CC2)nc2ccccc12,7.00
2,c1ccc2c(N3CC[C@@H](Oc4nccnc4C4CCOCC4)C3)nccc2c1,5.35
3,OCC1CCN(c2ncc(Br)c(OC3CN(c4ncc5ccccc5n4)C3)n2)CC1,7.84
4,O=C(c1ccc[nH]1)N1CCC(Oc2ncccc2C2CCOCC2)CC1,5.37
5,O=C(c1nc2ccccc2[nH]1)N1CC(Oc2nccnc2N2CCOCC2)C1,6.42
6,O=C(c1nc2ccccc2[nH]1)N1CC(Oc2nccnc2C2=CCOCC2)C1,6.65
7,c1ccc2[nH]c(N3CC[C@H](Oc4nccnc4C4CCOCC4)C3)nc2c1,5.41
8,Cc1ccncc1-c1nccnc1OC1CN(c2ccc3ccccc3n2)C1,6.60
9,Brc1cccnc1OC1CN(c2ccncn2)C1,4.24
10,CC(=O)N1CCC(c2nccnc2OC2CCN(c3ccc(C)cn3)CC2)CC1,5.79
11,CC(=O)N1CCC(c2cccnc2OC2CCN(c3ccc(Cl)cn3)CC2)CC1,5.92
12,Cc1ncccc1-c1nccnc1OC1CN(c2ccc3ccccc3n2)C1,6.87
13,Cc1ccc(C(=O)N2CCC(Oc3ncccc3C3CCOCC3)CC2)nc1,5.78
14,OC1CN(c2nccnc2OC2CCN(c3ccc4ccccc4n3)CC2)C1,5.91
15,OCC1CN(c2nccnc2OC2CN(c3ccc4ccccc4n3)C2)CCO1 (stereo not given),7.05
16,CC(=O)N1CCC(c2nccnc2OC2CCN(c3cc(Cl)ccn3)CC2)CC1,7.02
17,OCC1CCN(c2nccnc2OC2CN(c3ccc4ccccc4n3)C2)CC1,8.64
18,CC(C)(C)OC(=O)N1CC=C(c2cnc(N3CCC(CO)CC3)nc2OC2CN(c3ccc4ccccc4n3)C2)CC1,9.52
19,COc1ccc(-c2nccnc2OC2CN(c3ccc4ccccc4n3)C2)cn1,7.60
